Legend:
[1] = tested on: Tyrosine-protein kinase ABL1 (Homo sapiens), P00519 [F317I]
[2] = biological target: Tyrosine-protein kinase Blk (Homo sapiens) (UniProt P51451)
[3] = biological target: Calcium/calmodulin-dependent protein kinase kinase 1 (Homo sapiens) (UniProt Q8N5S9)
[4] = biological target: Cyclin-dependent kinase 5 (Homo sapiens) (UniProt Q00535)
[5] = biological target: Cyclin-dependent kinase 8 (Homo sapiens) (UniProt P49336)
[6] = biological target: Cyclin-dependent kinase 9 (Homo sapiens) (UniProt P50750)
[7] = biological target: Tyrosine-protein kinase CSK (Homo sapiens) (UniProt P41240)
[8] = biological target: Casein kinase I isoform delta (Homo sapiens) (UniProt P48730)
Sequence of Casein kinase I isoform delta (Homo sapiens) (P48730 whole entry, looked up, canonical isoform): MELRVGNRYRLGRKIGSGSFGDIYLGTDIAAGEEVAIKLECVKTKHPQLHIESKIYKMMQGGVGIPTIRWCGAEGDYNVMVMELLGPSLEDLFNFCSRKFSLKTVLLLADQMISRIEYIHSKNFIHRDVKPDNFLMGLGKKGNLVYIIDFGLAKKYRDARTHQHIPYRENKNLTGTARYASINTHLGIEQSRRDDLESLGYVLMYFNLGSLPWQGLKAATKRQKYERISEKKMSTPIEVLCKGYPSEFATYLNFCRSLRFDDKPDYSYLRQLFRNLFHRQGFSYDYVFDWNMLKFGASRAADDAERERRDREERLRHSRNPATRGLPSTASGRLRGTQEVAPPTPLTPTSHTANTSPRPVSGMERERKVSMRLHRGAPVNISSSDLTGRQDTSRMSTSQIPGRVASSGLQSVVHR

[9] = biological target: Death-associated protein kinase 2 (Homo sapiens) (UniProt Q9UIK4)
[10] = tested on: Epidermal growth factor receptor (Homo sapiens), P00533 [G719C]
[11] = biological target: Ephrin type-A receptor 5 (Homo sapiens) (UniProt P54756)
[12] = tested on: Receptor-type tyrosine-protein kinase FLT3 (Homo sapiens), P36888 [R834Q]
[13] = biological target: G protein-coupled receptor kinase 3 (Homo sapiens) (UniProt P35626)
[14] = biological target: G protein-coupled receptor kinase 4 (Homo sapiens) (UniProt P32298)
[15] = biological target: Glycogen synthase kinase-3 beta (Homo sapiens) (UniProt P49841)
Sequence of Glycogen synthase kinase-3 beta (Homo sapiens) (P49841 whole entry, looked up, the tested form may be a part): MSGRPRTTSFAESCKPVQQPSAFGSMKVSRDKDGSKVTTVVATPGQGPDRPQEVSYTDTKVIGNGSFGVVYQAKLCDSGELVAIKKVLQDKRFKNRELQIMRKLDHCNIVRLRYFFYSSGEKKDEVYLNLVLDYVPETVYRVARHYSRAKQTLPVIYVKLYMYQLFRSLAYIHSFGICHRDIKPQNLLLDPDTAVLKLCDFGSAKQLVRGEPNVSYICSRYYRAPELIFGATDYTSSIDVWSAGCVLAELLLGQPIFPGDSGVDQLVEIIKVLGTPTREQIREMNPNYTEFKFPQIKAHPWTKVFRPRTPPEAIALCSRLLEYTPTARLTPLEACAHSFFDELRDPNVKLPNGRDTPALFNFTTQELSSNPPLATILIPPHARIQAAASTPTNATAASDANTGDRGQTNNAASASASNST

[16] = biological target: LIM domain kinase 1 (Homo sapiens) (UniProt P53667)
[17] = tested on: Leucine-rich repeat serine/threonine-protein kinase 2 (Homo sapiens), Q5S007 [G2019S]
Sequence of Leucine-rich repeat serine/threonine-protein kinase 2 (Homo sapiens), Q5S007 [G2019S] (Q5S007 whole entry G2019S): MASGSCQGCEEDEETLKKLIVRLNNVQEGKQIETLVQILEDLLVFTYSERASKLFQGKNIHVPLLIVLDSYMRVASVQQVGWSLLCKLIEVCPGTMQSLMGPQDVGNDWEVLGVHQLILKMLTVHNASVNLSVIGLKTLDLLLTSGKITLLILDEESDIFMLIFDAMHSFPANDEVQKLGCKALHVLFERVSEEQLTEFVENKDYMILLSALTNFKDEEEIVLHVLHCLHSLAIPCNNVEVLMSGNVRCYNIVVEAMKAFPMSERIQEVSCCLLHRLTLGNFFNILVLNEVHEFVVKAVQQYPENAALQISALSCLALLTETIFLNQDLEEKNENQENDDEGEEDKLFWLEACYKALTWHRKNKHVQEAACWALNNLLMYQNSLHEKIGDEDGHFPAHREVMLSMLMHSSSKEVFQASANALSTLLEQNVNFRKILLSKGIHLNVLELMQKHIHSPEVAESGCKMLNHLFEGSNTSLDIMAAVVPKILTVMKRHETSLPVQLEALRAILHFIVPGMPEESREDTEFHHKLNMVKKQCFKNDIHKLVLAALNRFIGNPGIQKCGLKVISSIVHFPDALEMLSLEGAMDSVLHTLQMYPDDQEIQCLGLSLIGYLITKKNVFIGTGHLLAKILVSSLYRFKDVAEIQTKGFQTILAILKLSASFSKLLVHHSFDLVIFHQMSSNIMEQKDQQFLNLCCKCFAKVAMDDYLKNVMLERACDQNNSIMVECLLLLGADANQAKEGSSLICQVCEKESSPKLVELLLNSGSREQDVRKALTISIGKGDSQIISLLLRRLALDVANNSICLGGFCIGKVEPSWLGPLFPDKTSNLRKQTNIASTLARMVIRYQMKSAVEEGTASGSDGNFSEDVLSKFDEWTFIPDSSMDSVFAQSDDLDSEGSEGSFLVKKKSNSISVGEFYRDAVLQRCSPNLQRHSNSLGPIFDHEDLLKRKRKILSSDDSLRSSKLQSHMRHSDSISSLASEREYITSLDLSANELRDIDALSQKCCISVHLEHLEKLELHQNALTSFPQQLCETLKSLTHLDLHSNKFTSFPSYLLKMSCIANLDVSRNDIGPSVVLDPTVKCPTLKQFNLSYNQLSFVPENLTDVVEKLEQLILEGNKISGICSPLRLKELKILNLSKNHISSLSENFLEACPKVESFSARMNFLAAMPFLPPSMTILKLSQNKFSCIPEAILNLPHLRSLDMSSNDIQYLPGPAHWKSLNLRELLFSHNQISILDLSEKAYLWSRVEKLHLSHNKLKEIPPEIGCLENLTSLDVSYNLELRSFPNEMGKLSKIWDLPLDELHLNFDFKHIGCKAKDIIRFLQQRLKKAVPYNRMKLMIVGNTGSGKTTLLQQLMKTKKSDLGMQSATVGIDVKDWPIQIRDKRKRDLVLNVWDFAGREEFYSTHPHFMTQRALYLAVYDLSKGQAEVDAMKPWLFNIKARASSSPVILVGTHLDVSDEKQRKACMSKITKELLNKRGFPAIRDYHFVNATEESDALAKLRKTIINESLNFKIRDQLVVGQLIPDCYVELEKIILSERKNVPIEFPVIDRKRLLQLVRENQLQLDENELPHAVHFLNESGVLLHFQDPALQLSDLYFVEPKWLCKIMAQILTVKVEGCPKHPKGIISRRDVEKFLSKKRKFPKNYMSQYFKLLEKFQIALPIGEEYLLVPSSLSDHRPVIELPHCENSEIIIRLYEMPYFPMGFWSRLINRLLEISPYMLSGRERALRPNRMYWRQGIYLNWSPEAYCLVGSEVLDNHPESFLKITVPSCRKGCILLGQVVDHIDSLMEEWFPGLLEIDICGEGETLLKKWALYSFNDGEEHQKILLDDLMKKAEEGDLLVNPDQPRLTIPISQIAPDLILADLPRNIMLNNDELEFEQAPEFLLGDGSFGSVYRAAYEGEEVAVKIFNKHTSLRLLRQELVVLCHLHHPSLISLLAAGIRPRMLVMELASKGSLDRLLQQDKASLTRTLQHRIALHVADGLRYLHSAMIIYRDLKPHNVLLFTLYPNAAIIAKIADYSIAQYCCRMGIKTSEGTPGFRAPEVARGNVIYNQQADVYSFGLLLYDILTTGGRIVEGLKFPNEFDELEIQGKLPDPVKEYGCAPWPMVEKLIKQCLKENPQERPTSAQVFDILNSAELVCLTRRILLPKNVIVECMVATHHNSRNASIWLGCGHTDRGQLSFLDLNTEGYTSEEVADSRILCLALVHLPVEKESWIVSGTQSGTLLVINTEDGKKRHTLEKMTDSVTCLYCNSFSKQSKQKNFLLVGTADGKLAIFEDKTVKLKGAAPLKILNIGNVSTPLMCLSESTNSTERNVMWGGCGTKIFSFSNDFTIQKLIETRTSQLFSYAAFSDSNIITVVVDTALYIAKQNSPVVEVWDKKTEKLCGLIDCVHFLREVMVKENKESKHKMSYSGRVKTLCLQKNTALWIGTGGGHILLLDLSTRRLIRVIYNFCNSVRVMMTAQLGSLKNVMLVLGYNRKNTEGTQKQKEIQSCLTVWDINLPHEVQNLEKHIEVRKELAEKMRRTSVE

[18] = biological target: Mitogen-activated protein kinase kinase kinase 13 (Homo sapiens) (UniProt O43283)
[19] = biological target: Dual specificity mitogen-activated protein kinase kinase 1 (Homo sapiens) (UniProt Q02750)
Sequence of Dual specificity mitogen-activated protein kinase kinase 1 (Homo sapiens) (Q02750 whole entry): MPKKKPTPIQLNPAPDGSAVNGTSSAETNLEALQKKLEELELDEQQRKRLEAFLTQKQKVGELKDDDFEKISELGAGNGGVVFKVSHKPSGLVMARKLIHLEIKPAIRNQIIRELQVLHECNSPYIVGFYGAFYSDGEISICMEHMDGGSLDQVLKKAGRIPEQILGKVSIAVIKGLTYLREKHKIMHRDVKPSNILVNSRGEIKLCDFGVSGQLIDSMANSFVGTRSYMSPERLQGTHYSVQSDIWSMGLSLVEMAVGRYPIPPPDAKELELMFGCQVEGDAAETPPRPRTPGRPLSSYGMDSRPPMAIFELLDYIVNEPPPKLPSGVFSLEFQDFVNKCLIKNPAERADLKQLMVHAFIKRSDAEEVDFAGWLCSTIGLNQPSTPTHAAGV

[20] = biological target: Dual specificity mitogen-activated protein kinase kinase 3 (Homo sapiens) (UniProt P46734)
[21] = biological target: Dual specificity mitogen-activated protein kinase kinase 4 (Homo sapiens) (UniProt P45985)
[22] = biological target: Hepatocyte growth factor receptor (Homo sapiens) (UniProt P08581)
[23] = biological target: Myosin light chain kinase (Homo sapiens) (UniProt Q32MK0)
[24] = biological target: Mitogen-activated protein kinase kinase kinase 10 (Homo sapiens) (UniProt Q02779)
[25] = biological target: Serine/threonine-protein kinase 38-like (Homo sapiens) (UniProt Q9Y2H1)
[26] = biological target: Serine/threonine-protein kinase Nek9 (Homo sapiens) (UniProt Q8TD19)
[27] = biological target: Serine/threonine-protein kinase NIM1 (Homo sapiens) (UniProt Q8IY84)
[28] = biological target: Serine/threonine-protein kinase PAK 1 (Homo sapiens) (UniProt Q13153)
[29] = biological target: Serine/threonine-protein kinase PAK 3 (Homo sapiens) (UniProt O75914)
[30] = biological target: Phosphorylase b kinase gamma catalytic chain, skeletal muscle/heart isoform (Homo sapiens) (UniProt Q16816)
[31] = biological target: Phosphatidylinositol 4-phosphate 5-kinase type-1 gamma (Homo sapiens) (UniProt O60331)
[32] = biological target: Serine/threonine-protein kinase N2 (Homo sapiens) (UniProt Q16513)
[33] = biological target: Interferon-induced, double-stranded RNA-activated protein kinase (Homo sapiens) (UniProt P19525)
[34] = biological target: Serine/threonine-protein kinase RIO3 (Homo sapiens) (UniProt O14730)
[35] = biological target: Ribosomal protein S6 kinase alpha-6 (Homo sapiens) (UniProt Q9UK32)
[36] = biological target: Dual specificity testis-specific protein kinase 1 (Homo sapiens) (UniProt Q15569)
[37] = biological target: TRAF2 and NCK-interacting protein kinase (Homo sapiens) (UniProt Q9UKE5)
Sequence of TRAF2 and NCK-interacting protein kinase (Homo sapiens) (Q9UKE5 whole entry, looked up): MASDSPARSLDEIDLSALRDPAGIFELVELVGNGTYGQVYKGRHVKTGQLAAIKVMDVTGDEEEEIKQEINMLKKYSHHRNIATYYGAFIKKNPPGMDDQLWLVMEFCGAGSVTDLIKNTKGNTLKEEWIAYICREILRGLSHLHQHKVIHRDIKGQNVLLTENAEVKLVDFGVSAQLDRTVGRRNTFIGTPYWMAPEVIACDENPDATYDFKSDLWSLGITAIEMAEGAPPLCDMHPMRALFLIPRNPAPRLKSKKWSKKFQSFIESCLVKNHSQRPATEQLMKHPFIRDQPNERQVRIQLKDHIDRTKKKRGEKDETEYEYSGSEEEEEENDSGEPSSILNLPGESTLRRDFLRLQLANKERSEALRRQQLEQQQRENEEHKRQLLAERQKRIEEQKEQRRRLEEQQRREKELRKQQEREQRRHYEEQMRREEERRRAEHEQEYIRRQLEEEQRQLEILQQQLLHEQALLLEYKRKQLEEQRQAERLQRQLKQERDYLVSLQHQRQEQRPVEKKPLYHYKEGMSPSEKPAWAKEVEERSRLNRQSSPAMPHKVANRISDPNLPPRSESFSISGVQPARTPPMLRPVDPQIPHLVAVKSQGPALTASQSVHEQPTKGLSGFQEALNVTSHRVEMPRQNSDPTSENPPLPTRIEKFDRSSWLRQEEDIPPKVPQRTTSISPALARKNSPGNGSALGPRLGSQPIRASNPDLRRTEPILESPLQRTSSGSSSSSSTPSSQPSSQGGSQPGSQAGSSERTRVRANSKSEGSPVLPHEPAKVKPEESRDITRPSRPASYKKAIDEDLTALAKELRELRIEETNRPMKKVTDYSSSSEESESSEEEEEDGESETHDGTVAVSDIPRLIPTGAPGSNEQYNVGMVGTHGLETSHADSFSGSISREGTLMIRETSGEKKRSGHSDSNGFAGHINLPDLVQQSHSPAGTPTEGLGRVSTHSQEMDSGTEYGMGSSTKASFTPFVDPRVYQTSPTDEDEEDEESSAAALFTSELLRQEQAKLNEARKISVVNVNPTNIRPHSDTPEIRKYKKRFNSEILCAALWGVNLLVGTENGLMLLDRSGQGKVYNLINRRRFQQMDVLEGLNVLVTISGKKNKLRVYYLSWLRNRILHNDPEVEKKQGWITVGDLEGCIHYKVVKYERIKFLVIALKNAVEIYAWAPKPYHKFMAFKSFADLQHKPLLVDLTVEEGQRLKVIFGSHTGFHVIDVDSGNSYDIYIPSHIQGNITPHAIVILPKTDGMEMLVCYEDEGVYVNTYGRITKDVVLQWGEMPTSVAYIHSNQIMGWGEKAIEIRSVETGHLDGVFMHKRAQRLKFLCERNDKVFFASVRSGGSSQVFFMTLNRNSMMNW

[38] = biological target: Serine/threonine-protein kinase ULK1 (Homo sapiens) (UniProt O75385)
[39] = biological target: Tyrosine-protein kinase ZAP-70 (Homo sapiens) (UniProt P43403)
[40] = biological target: 5-hydroxytryptamine receptor 1B (Homo sapiens) (UniProt P28222); details: Compound concentration 10.0 uM
[41] = biological target: 5-hydroxytryptamine receptor 1D (Homo sapiens) (UniProt P28221); details: Compound concentration 10.0 uM
[42] = biological target: 5-hydroxytryptamine receptor 1E (Homo sapiens) (UniProt P28566); details: Compound concentration 10.0 uM
[43] = biological target: Alpha-2A adrenergic receptor (Homo sapiens) (UniProt P08913); details: Compound concentration 10.0 uM
[44] = biological target: Muscarinic acetylcholine receptor M1 (Homo sapiens) (UniProt P11229); details: Compound concentration 10.0 uM
[45] = biological target: Muscarinic acetylcholine receptor M2 (Homo sapiens) (UniProt P08172); details: Compound concentration 10.0 uM
[46] = Compound concentration 1000.0 nM
[47] = Compound concentration 100.0 nM

CN(C)c1ncnc(-c2ccc3nc(Nc4cc(CN5CCN(C(=O)CC(F)(F)F)CC5)ccn4)[nH]c3c2)c1Cl [BAY-440]
inactive: residual activity [1, 46] 71% | residual activity [2, 46] 82% | residual activity [3, 46] 100% | residual activity [4, 46] 100% | residual activity [5, 46] 90% | residual activity [6, 46] 100% | residual activity [7, 46] 84% | residual activity [8, 46] 83% | residual activity [9, 46] 100% | residual activity [10, 46] 88% | residual activity [11, 46] 100% | residual activity [12, 46] 77% | residual activity [13, 46] 78% | residual activity [14, 46] 100% | residual activity [15, 46] 100% | residual activity [16, 46] 100% | residual activity [17, 46] 69% | residual activity [18, 46] 86% | residual activity [19, 46] 78% | residual activity [20, 46] 73% | residual activity [21, 46] 92% | residual activity [22, 46] 69% | residual activity [23, 46] 90% | residual activity [24, 46] 100% | residual activity [25, 46] 74% | residual activity [26, 46] 100% | residual activity [27, 46] 61% | residual activity [28, 46] 100% | residual activity [29, 46] 81% | residual activity [30, 46] 96% | residual activity [31, 46] 100% | residual activity [32, 46] 85% | residual activity [33, 46] 100% | residual activity [34, 46] 92% | residual activity [35, 46] 84% | residual activity [36, 46] 78% | residual activity [37, 46] 53% | residual activity [38, 46] 75% | residual activity [39, 46] 100% | inhibition [40] 6.15% | inhibition [41] 19.5% | inhibition [42] 29.3% | inhibition [43] 15.7% | inhibition [44] 32.1% | inhibition [45] 35.1%

C[C@H](c1ccnc(Nc2nc3ccc(-c4cc(N(C)C)ncn4)cc3[nH]2)c1)N1CCN(C(=O)CC(F)(F)F)CC1 [BAY-985]
inactive: residual activity [1, 47] 100% | residual activity [2, 47] 79% | residual activity [3, 47] 89% | residual activity [4, 47] 86% | residual activity [5, 47] 96% | residual activity [6, 47] 100% | residual activity [7, 47] 100% | residual activity [8, 47] 89% | residual activity [9, 47] 74% | residual activity [10, 47] 84% | residual activity [11, 47] 81% | residual activity [12, 47] 100% | residual activity [13, 47] 100% | residual activity [14, 47] 100% | residual activity [15, 47] 100% | residual activity [16, 47] 100% | residual activity [17, 47] 100% | residual activity [18, 47] 100% | residual activity [19, 47] 99% | residual activity [20, 47] 97% | residual activity [21, 47] 100% | residual activity [22, 47] 100% | residual activity [23, 47] 100% | residual activity [24, 47] 100% | residual activity [25, 47] 65% | residual activity [26, 47] 100% | residual activity [27, 47] 100% | residual activity [28, 47] 77% | residual activity [29, 47] 100% | residual activity [30, 47] 100% | residual activity [31, 47] 89% | residual activity [32, 47] 95% | residual activity [33, 47] 100% | residual activity [34, 47] 97% | residual activity [35, 47] 97% | residual activity [36, 47] 98% | residual activity [37, 47] 96% | residual activity [38, 47] 95% | residual activity [39, 47] 100% | inhibition [40] 11.5% | inhibition [41] 23.2% | inhibition [42] 13.6% | inhibition [43] 24.2% | inhibition [44] 15.1% | inhibition [45] 32.9%
